Measured values from EP3815699A1, “NEW MEANS AND METHODS FOR THERAPY AND DIAGNOSIS OF […]” (Technische Universität München, priority 2019, dated 2021).
Entries after “also recorded” stand apart in the source; their conditions may differ. Like-named read-outs stand apart in the source and are kept apart here.

Key:
[1] = system: HAdV-C5 wt; test: Immunofluorescence count of E2A and capsid expressing infected cells (Fig. 1A); format: cell-based
Description: (§1) • Figure 1: ATO efficiently reduces HAdV infectivity (cf. Example 1). H1299 cells were infected with HAdV-C5 wt at a multiplicity of 5 FFU/cell, treated with the depicted concentrations of ATO at 2 h.p.i., fixed 48 h.p.i. with 4 % PFA and double labeled with mAb B6-8 (α-E2A) and pAb L133 (α-Capsid). Primary antibodies were detected using Alexa488 (E2A, green) and Alexa568 (Capsid, red) conjugated secondary antibodies. (A) The number of E2A and Capsid expressing cells, respectively, was counted in n=40 overview pictures (not shown), normalized to untreated, infected cells, and represented in bar charts. Bar charts represent average values and standard deviations based on four independent experiments. (B) H1299 cells were infected with HAdV-C5 at a multiplicity of 20 FFU/cell, and treated with the depicted concentrations of ATO at 2 h.p.i.. Viral particles were harvested 48 h.p.i. and virus yield was determined by quantitative E2A immunofluorescence staining in 293 cells. Bar charts represent average values and standard deviations based on three independent experiments. Statistically significant differences were determined using a two-sided Welch's t-test. *: P ≤ 0.05, **: P ≤ 0.01, ***: P ≤ 0.001, ****: P ≤ 0.0001. • Figure 2: ATO induces a dose dependent reduction of HAdV infectivity with minor effects on cell viability (cf. Example 2). […] 24 or 48 h.p.i., cell viability was assessed using the Promega CellTiter-Blue Cell Viability Assay system, prior to fixation with 4 % PFA and cells were double labeled with mAb B6-8 (α-E2A) and pAb L133 (α-Capsid). Primary antibodies were detected using Alexa488 (E2A, green) and Alexa647 (Capsid, red) conjugated secondary antibodies. Fluorescence intensity was measured using a Tecan Infinite 200M plate reader using an excitation and emission wavelength of 488 and 520nm for Alexa488 and 640 and 670nm for Alexa647 respectively. Fluorescence intensity was normalized to untreated, infected cells at 48h p.i.. xy charts represent average values and standard deviations based on three independent experiments measured in triplicates. (B) H1299 cells were infected with an HAdV-C5 delta E3 virus, encoding a CMV promoter driven eGFP expression cassette, at a multiplicity of 20FFU/cell and treated with the depicted concentrations of ATO at 2h p.i.; 24 or 48 h p.i. cell viability was assessed using the Promega CellTiter-Blue Cell Viability Assay system, and GFP fluorescence intensity was measured using a Tecan Infinite 200M plate reader using an excitation and emission wavelength of 488 and 520nm. Fluorescence intensity was normalized to untreated, infected cells at 48h p.i.; xy charts represent average values and standard deviations based on three independent experiments measured in triplicates. […]

[2] = system: HAdV-C5 wt; test: Tecan plate reader measurement of E2A and capsid immunofluorescence intensity in infected H1299 cells (Fig. 2A); format: cell-based
Description: • Figure 1: ATO efficiently reduces HAdV infectivity (cf. Example 1). H1299 cells were infected with HAdV-C5 wt at a multiplicity of 5 FFU/cell, treated with the depicted concentrations of ATO at 2 h.p.i., fixed 48 h.p.i. with 4 % PFA and double labeled with mAb B6-8 (α-E2A) and pAb L133 (α-Capsid). Primary antibodies were detected using Alexa488 (E2A, green) and Alexa568 (Capsid, red) conjugated secondary antibodies. (A) The number of E2A and Capsid expressing cells, respectively, was counted in n=40 overview pictures (not shown), normalized to untreated, infected cells, and represented in bar charts. Bar charts represent average values and standard deviations based on four independent experiments. (B) H1299 cells were infected with HAdV-C5 at a multiplicity of 20 FFU/cell, and treated with the depicted concentrations of ATO at 2 h.p.i.. Viral particles were harvested 48 h.p.i. and virus yield was determined by quantitative E2A immunofluorescence staining in 293 cells. Bar charts represent average values and standard deviations based on three independent experiments. Statistically significant differences were determined using a two-sided Welch's t-test. *: P ≤ 0.05, **: P ≤ 0.01, ***: P ≤ 0.001, ****: P ≤ 0.0001. • Figure 2: ATO induces a dose dependent reduction of HAdV infectivity with minor effects on cell viability (cf. Example 2). (A) H1299 cells were infected with HAdV-C5 wt at a multiplicity of 20 FFU/cell and treated with the depicted concentrations of ATO at 2 h.p.i.. 24 or 48 h.p.i., cell viability was assessed using the Promega CellTiter-Blue Cell Viability Assay system, prior to fixation with 4 % PFA and cells were double labeled with mAb B6-8 (α-E2A) and pAb L133 (α-Capsid). Primary antibodies were detected using Alexa488 (E2A, green) and Alexa647 (Capsid, red) conjugated secondary antibodies. Fluorescence intensity was measured using a Tecan Infinite 200M plate reader using an excitation and emission wavelength of 488 and 520nm for Alexa488 and 640 and 670nm for Alexa647 respectively. Fluorescence intensity was normalized to untreated, infected cells at 48h p.i.. xy charts represent average values and standard deviations based on three independent experiments measured in triplicates. (B) H1299 cells were infected with an HAdV-C5 delta E3 virus, encoding a CMV promoter driven eGFP expression cassette, at a multiplicity of 20FFU/cell and treated with the depicted concentrations of ATO at 2h p.i.; 24 or 48 h p.i. cell viability was assessed using the Promega CellTiter-Blue Cell Viability Assay system, and GFP fluorescence intensity was measured using a Tecan Infinite 200M plate reader using an excitation and emission wavelength of 488 and 520nm. Fluorescence intensity was normalized to untreated, infected cells at 48h p.i.; xy charts represent average values and standard deviations based on three independent experiments measured in triplicates. (C) H1299 cells were infected with an eGFP expressing HAdV-C5 based first generation adenoviral vector at a multiplicity of 20 FFU/cell and treated with the depicted concentrations of ATO at 2h p.i.; 24 or 48h p.i., cell viability was assessed using the Promega CellTiter-Blue Cell Viability Assay system, and GFP fluorescence intensity was measured using a Tecan Infinite 200M plate reader using an excitation and emission wavelength of 488 and 520nm. Fluorescence intensity was normalized to untreated, infected cells at 48h p..i.; xy charts represent average values and standard deviations based on three independent experiments measured in triplicates. (D) A549 cells were infected with an HAdV-C5 delta E3 virus, encoding a CMV promoter driven eGFP expression cassette, at a multiplicity of 20FFU/cell and treated with the depicted concentrations of ATO at 2h p.i.. GFP-fluorescence, as well as cell growth via phase contrast-imaging was assessed for 48 h with a 2h increment using an IncuCyte S3 Live-Cell Analysis System. […]

[3] = system: HAdV-C5 delta E3 virus, encoding a CMV promoter driven eGFP expression cassette; test: IncuCyte live-cell imaging, real-time kinetics of GFP expression (Fig. 2D); format: cell-based; conditions: 60h p.i., A549 cells
[4] = system: H1299 cells; format: cell-based, Human; conditions: lower panel
Description: as §1, with “triplicates.” for “triplicates. (B) H1299 cells were infected with an HAdV-C5 delta E3 virus, encoding a CMV promoter driven eGFP expression cassette, at a multiplicity of 20FFU/cell and treated with the depicted concentrations of ATO at 2h p.i.; 24 or 48 h p.i. cell viability was assessed using the Promega CellTiter-Blue Cell Viability Assay system, and GFP fluorescence intensity was measured using a Tecan Infinite 200M plate reader using an excitation and emission wavelength of 488 and 520nm. Fluorescence intensity was normalized to untreated, infected cells at 48h p.i.; xy charts represent average values and standard deviations based on three independent experiments measured in triplicates.”

[5] = system: HAdV-C5 wt; test: Native agarose gel electrophoresis capsid formation assay (Fig. 3D); format: cell-based
[6] = ATO concentration not stated at the place

arsenic trioxide [ATO]
reduction of early viral DNA binding protein E2A expression ([1]; 1µM ATO, H1299, 5 FFU/cell, ATO at 2 h.p.i., 48 h.p.i.): 40% | inhibition of late capsid protein expression ([1]; 2.0µM ATO, H1299, 5 FFU/cell, ATO at 2 h.p.i., 48 h.p.i.): ~80% | reduction in cells expressing E2A [1, 6]: up to 40% | reduction in cells expressing capsid [1, 6]: up to 80% | reduction of capsid expression ([2]; 2µM ATO, 48h p.i.): 40% | reduction of E2A protein expression ([2]; 4µM ATO, 24h p.i.): more than 50% | E2A expression compared to the untreated control ([2]; 4µM ATO, 24h p.i., Fig. 2A): less than 50% | capsid detection / capsid expression ([2]; 4µM ATO, 48h p.i.): complete loss | E2A expression reduced to ([2]; 4µM ATO, 48h p.i., remaining expression): 60% | HAdV E2A protein expression ([2]; 8µM ATO, 24h p.i., Fig. 2A): completely block; also recorded: completely blocking | E2A expression ([2]; 8µM ATO, 48h p.i.): not detectable; also recorded: completely blocking | reduction of E2A protein expression ([2]; 8µM ATO, 48h p.i.): up to 60% | IC50 ([2]; 24h p.i., Fig. 2A, read-out: IC50 (E2A expression)): 1.91 µM | IC50 ([2]; 48h p.i., Fig. 2A, read-out: IC50 (E2A expression)): 4.06 µM | IC50 ([2]; 48h p.i., Fig. 2A, read-out: IC50 (capsid expression)): 2.07 µM | reduction of GFP expression / viral load over time [3]: four-fold | cellular cytotoxicity of ATO ([4]; H1299 infected with HAdV-C5 wt, ATO 0-10 µM, Fig. 2A): no clear effect | cellular cytotoxicity of ATO ([4]; H1299 infected with non-replicating eGFP vector, ATO 0-8µM, Fig. 2C): no clear effect | cellular cytotoxicity of ATO ([4]; H1299 infected with replication competent HAdV-GFP, Fig. 2B): no clear effect | signal obtained after capsid staining (native gel assay) [5]: significantly reduced | capsid protein expression ([5]; denatured input lysates, right panel): reduced
